Assay results reported in patent US11234982B2, “Methods for treating ocular surface pain” (NOVARTIS AG, priority 2019, dated 2022).

Tests used:
healthy volunteers [1] = experiment: First in human study Part 1: SAD, incidence of adverse events; type: in vivo; conditions: N = 6
Description: This example describes a first-in-human study of compound I conducted in healthy volunteers. A total of 54 subjects were administered to study medication. Part 1 of the first in human study administered single ascending doses of 0.15%, 1.5%, 2.5% w/v (1 drop) of compound I in an eye drop.
(§1) Safety assessments: Safety assessments consisted of collecting all adverse events (AEs), serious adverse events (SAEs), including systemic and ocular adverse events, along with their severity and relationship to study drug. Systemic safety assessments included regular monitoring of hematology, blood chemistry and urinalysis performed at study center and regular assessments of physical examination, vital signs (systolic and diastolic blood pressure, pulse rate, and body temperature), ECG, pregnancy and assessments of fertility and hand immersion test at 49° C. during MAD part. Ocular safety assessments included early treatment diabetic retinopathy study (ETDRS) visual acuity, intraocular pressure, slit-lamp biomicroscopy, corneal staining and dilated fundus exam.
Inclusion Criteria: • Written informed consent was obtained before any assessment was performed. • Healthy male and female subjects aged 18 to 50 years (inclusive), and in good health as determined by past medical history, physical examination, vital signs, ECG, and laboratory tests at Screening. • At Screening, and Baseline, vital signs (systolic and diastolic blood pressure (BP) and pulse rate) were assessed in the sitting position after the subject had rested for at least 3 minutes and again after 3 minutes in the standing position. […] BMI=Body weight (kg)/[Height (m)]^2 • Subjects who were able to communicate well with the Investigator, to understand and comply with the requirements of the study. • For Part 3, subjects Baseline levels of eye sensitivity were to be in the range of 50 to 60 mm (inclusive) as measured by the Cochet-Bonnet esthesiometer.
History of any chronic eye disease other than refractive error, incipient cataract, strabismic amblyopia, or anisometropic amblyopia. Subjects with a history of acute eye disease (such as infection, corneal abrasion or allergy) within the past 6 months from Screening were eligible if the disease was not active. • Any currently active ocular condition that required use of topical eye drops. • Subjects using continuous positive airway pressure or other sleep apnea devices.

healthy volunteers [2] = experiment: Hand immersion test at 49° C. during MAD part; type: in vivo, human; conditions: water at 49° C.
Description: as §1
For the hand immersion test, all subjects in the treatment cohorts withdrew their hand from water at 49° C. at a time interval between 0 to ≤50 secs.

[3] = PRK study: residual compound I in bandage contact lens (BCL); type: in vivo, human
Description: Compound I was quantified in plasma using a validated LC-MS/MS method; the lower limit of quantification (LLOQ) was 0.05 ng/mL. Concentrations were expressed in ng per mL units. When feasible, bandage contact lenses (BCL) exposed to study drug were collected and analyzed for residual drug exposure after treatment (LLOQ: 5.00 ng/mL in 0.55 mL of extraction fluid, or 2.75 ng/BCL). Concentrations below the LLOQ were reported as “zero” and missing data were labeled as such.
Bandage Contact Lens (BCL) was collected from 40 patients on Day 4 of the dose administration and analyzed for compound I. Values from the three IMP non-compliant patients were excluded from BCL summary statistics, leaving 37 values evaluable, including one value from a patient without available plasma PK. The mean concentration of compound I (CV %) in 0.55 mL extraction fluid was 8500 ng/mL (73.1%), with a wide range of 284 to 22600 ng/mL. These concentrations translate to an estimated mean of 4680 ng/lens (0.55 mL×8500 ng/mL), and a range of 156 to 12400 ng/lens. The amount in BCL was very small in relation to the 0.925 mg dose of compound I administered: mean 0.51%, and range of 0.017% to 1.3% of dose.

For `CC(C)c1nc2cc(O)ccc2c(=O)n1-c1ccc(C#N)cc1` [Compound I, 4-(7-hydroxy-2-isopropyl-4-oxo-4H-quinazolin-3-yl)-benzonitrile], the “AEs leading to of study: nE” value (healthy volunteers [1]; 0.15% 1 drop) was 0, the “AEs leading to of study: nS (%)” value (healthy volunteers [1]; 0.15% 1 drop) was 0 (0.0) nS (%) and the “AEs of Mild severity: nE” value (healthy volunteers [1]; 0.15% 1 drop) was 3. For the same compound, the “AEs of Mild severity: nS (%)” value (healthy volunteers [1]; 0.15% 1 drop) was 1 (16.7) nS (%), the “AEs of Moderate severity: nE” value (healthy volunteers [1]; 0.15% 1 drop) was 0 and the “AEs of Moderate severity: nS (%)” value (healthy volunteers [1]; 0.15% 1 drop) was 0 (0.0) nS (%). For the same compound, the “AEs, Subjects with AEs: nE (AE events)” value (healthy volunteers [1]; 0.15% 1 drop) was 3, the “AEs, Subjects with AEs: nS (%) (subjects with at least one AE)” value (from here on “AEs, Subjects with AEs: nS (%)”) (healthy volunteers [1]; 0.15% 1 drop) was 1 (16.7) nS (%) and the “Serious AEs: nE” value (healthy volunteers [1]; 0.15% 1 drop) was 0. The “Serious AEs: nS (%)” value (healthy volunteers [1]; 0.15% 1 drop) was 0 (0.0) nS (%), the “Study drug-related AEs: nE” value (healthy volunteers [1]; 0.15% 1 drop) was 3 and the “Study drug-related AEs: nS (%)” value (healthy volunteers [1]; 0.15% 1 drop) was 1 (16.7) nS (%). The “Study-drug related AEs leading to discontinuation of study: nE” value (shortened to “Study-drug related AEs leading … nE”) (healthy volunteers [1]; 0.15% 1 drop) was 0, the “Study-drug related AEs leading to discontinuation of study: nS (%)” value (shortened to “Study-drug related AEs leading … (%)”) (healthy volunteers [1]; 0.15% 1 drop) was 0 (0.0) nS (%) and the “AEs leading to of study: nE” value (healthy volunteers [1]; 1.5% 1 drop) was 0. The “AEs leading to of study: nS (%)” value (healthy volunteers [1]; 1.5% 1 drop) was 0 (0.0) nS (%), the “AEs of Mild severity: nE” value (healthy volunteers [1]; 1.5% 1 drop) was 3 and the “AEs of Mild severity: nS (%)” value (healthy volunteers [1]; 1.5% 1 drop) was 2 (33.3) nS (%). The “AEs of Moderate severity: nE” value (healthy volunteers [1]; 1.5% 1 drop) was 0, the “AEs of Moderate severity: nS (%)” value (healthy volunteers [1]; 1.5% 1 drop) was 0 (0.0) nS (%) and the “AEs, Subjects with AEs: nE (AE events)” value (healthy volunteers [1]; 1.5% 1 drop) was 3. For the same compound, the “AEs, Subjects with AEs: nS (%)” value (healthy volunteers [1]; 1.5% 1 drop) was 2 (33.3) nS (%), the “Serious AEs: nE” value (healthy volunteers [1]; 1.5% 1 drop) was 0 and the “Serious AEs: nS (%)” value (healthy volunteers [1]; 1.5% 1 drop) was 0 (0.0) nS (%). The “Study drug-related AEs: nE” value (healthy volunteers [1]; 1.5% 1 drop) was 3, the “Study drug-related AEs: nS (%)” value (healthy volunteers [1]; 1.5% 1 drop) was 2 (33.3) nS (%) and the “Study-drug related AEs leading … nE” value (healthy volunteers [1]; 1.5% 1 drop) was 0. The “Study-drug related AEs leading … (%)” value (healthy volunteers [1]; 1.5% 1 drop) was 0 (0.0) nS (%), the “AEs leading to of study: nE” value (healthy volunteers [1]; 2.5% 1 drop) was 0 and the “AEs leading to of study: nS (%)” value (healthy volunteers [1]; 2.5% 1 drop) was 0 (0.0) nS (%). For the same compound, the “AEs of Mild severity: nE” value (healthy volunteers [1]; 2.5% 1 drop) was 0, the “AEs of Mild severity: nS (%)” value (healthy volunteers [1]; 2.5% 1 drop) was 0 (0.0) nS (%) and the “AEs of Moderate severity: nE” value (healthy volunteers [1]; 2.5% 1 drop) was 0. The “AEs of Moderate severity: nS (%)” value (healthy volunteers [1]; 2.5% 1 drop) was 0 (0.0) nS (%), the “AEs, Subjects with AEs: nE (AE events)” value (healthy volunteers [1]; 2.5% 1 drop) was 0 and the “AEs, Subjects with AEs: nS (%)” value (healthy volunteers [1]; 2.5% 1 drop) was 0 (0.0) nS (%). For the same compound, the “Serious AEs: nE” value (healthy volunteers [1]; 2.5% 1 drop) was 0, the “Serious AEs: nS (%)” value (healthy volunteers [1]; 2.5% 1 drop) was 0 (0.0) nS (%) and the “Study drug-related AEs: nE” value (healthy volunteers [1]; 2.5% 1 drop) was 0. The “Study drug-related AEs: nS (%)” value (healthy volunteers [1]; 2.5% 1 drop) was 0 (0.0) nS (%), the “Study-drug related AEs leading … nE” value (healthy volunteers [1]; 2.5% 1 drop) was 0 and the “Study-drug related AEs leading … (%)” value (healthy volunteers [1]; 2.5% 1 drop) was 0 (0.0) nS (%). For the same compound, the “Change in hand immersion time, compound I vs vehicle” value (healthy volunteers [2]; MAD part) was “no meaningful change in immersion time”, the “Temperature sensitivity of the subjects” value (healthy volunteers [2]; MAD part) was “does not alter temperature sensitivity” and the “Longest hand immersion time of any subject” value (healthy volunteers [2]; all subjects in the treatment cohorts) was no more than 22 s. The “Range of concentration of compound I in BCL extraction fluid” value ([3]; 0.55 mL extraction fluid, Day 4) was 284 to 22600 ng/mL, the “Mean concentration of compound I in BCL extraction fluid” value ([3]; 0.55 mL extraction fluid, Day 4, 37 values) was 8500 ng/mL and the “Estimated mean amount of compound I per lens” value ([3]; 0.55 mL×8500 ng/mL) was 4680 ng/lens. For the same compound, the “Amount in BCL in relation to the 0.925 mg dose, mean” value ([3]; Day 4) was 0.51 % of dose, the “Amount in BCL in relation to the 0.925 mg dose, range” value ([3]; Day 4) was 0.017 % of dose and the “Range of amount of compound I per lens” value ([3]; Day 4) was 156 to 12400 ng/lens.
